Test results published in article PMC2922070 (Journal of peptide science : an official publication of the …, 2009).

What was measured:
Type in all cases: biochemical
[1] = target: T1, MK2 (Homo sapiens, UniProt P49137); assay: Radiometric IC50 determination
[2] = target: T1, MK2; assay: Radiometric kinase activity; conditions: ± S.D. between two samples, SD
[3] = target: MK3 (Homo sapiens, UniProt Q16644); assay: Radiometric kinase activity; conditions: ± S.D. between two samples, SD
[4] = target: CaMKI (Homo sapiens, UniProt Q14012); assay: Radiometric kinase activity; conditions: ± S.D. between two samples, SD
[5] = target: T2, MK5 (Homo sapiens, UniProt Q8IW41); assay: Radiometric kinase activity; conditions: ± S.D. between two samples, SD
T2 sequence (Q8IW41 1-473): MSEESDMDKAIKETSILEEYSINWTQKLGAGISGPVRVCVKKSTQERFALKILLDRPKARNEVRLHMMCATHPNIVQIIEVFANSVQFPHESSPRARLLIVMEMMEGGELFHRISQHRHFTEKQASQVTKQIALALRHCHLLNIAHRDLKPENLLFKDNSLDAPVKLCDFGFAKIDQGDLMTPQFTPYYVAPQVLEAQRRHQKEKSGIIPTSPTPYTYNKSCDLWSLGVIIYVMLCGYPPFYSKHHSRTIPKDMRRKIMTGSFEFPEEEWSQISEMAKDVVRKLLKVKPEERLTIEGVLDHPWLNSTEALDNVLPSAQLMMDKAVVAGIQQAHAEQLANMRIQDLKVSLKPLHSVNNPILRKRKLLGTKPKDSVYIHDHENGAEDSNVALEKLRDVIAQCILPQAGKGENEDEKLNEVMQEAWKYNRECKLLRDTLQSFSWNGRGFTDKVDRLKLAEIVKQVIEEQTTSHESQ

[6] = target: SAPK2a (p38α) (Homo sapiens, UniProt Q16539); assay: Radiometric kinase activity; conditions: ± S.D. between two samples, SD
[7] = target: T3, IRAK4 (Homo sapiens, UniProt Q9NWZ3); assay: Radiometric kinase activity; conditions: ± S.D. between two samples, SD
T3 sequence (Q9NWZ3 1-460): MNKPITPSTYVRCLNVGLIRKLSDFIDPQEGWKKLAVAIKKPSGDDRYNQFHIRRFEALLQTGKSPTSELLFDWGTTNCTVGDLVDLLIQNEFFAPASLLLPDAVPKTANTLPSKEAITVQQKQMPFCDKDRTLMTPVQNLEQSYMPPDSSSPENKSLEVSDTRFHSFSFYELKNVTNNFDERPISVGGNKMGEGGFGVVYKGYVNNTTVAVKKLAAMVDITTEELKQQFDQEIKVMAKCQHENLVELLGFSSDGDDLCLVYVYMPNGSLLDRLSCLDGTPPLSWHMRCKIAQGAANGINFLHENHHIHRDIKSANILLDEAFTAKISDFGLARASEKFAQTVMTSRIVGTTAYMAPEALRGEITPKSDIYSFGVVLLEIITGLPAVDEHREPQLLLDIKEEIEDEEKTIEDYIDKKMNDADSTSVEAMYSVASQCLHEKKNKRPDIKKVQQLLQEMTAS

[8] = target: MLCK (Homo sapiens, UniProt Q9H1R3); assay: Radiometric kinase activity; conditions: ± S.D. between two samples, SD
[9] = target: PKBβ (Homo sapiens, UniProt P31751); assay: Radiometric kinase activity; conditions: SD; for Percentage kinase activity, PKBβ: peptide 300 μM, ± S.D. between two samples
[10] = target: PKCδ (Homo sapiens, UniProt Q05655); assay: Radiometric kinase activity; conditions: ± S.D. between two samples, SD
[11] = target: ROCK-I (Homo sapiens, UniProt Q13464); assay: Radiometric kinase activity; conditions: ± S.D. between two samples, SD
[12] = target: T1, MK2; assay: Fluorescence-based kinase activity assay
[13] = read-out: Percentage kinase activity, PKBβ

Sequence of PKBβ (P31751 whole entry): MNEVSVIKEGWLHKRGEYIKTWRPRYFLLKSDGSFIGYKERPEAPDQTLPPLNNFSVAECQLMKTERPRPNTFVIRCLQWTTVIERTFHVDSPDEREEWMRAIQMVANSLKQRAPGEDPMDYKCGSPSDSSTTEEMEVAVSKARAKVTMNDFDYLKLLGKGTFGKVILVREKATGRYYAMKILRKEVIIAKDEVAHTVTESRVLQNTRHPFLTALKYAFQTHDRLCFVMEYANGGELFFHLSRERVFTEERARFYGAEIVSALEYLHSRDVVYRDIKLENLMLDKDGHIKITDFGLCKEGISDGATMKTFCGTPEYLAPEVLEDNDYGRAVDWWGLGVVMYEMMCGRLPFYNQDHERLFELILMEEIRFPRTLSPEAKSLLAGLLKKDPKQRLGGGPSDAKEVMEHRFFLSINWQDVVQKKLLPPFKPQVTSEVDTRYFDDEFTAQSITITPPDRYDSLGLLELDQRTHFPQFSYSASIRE
Sequence of CaMKI (Q14012 whole entry): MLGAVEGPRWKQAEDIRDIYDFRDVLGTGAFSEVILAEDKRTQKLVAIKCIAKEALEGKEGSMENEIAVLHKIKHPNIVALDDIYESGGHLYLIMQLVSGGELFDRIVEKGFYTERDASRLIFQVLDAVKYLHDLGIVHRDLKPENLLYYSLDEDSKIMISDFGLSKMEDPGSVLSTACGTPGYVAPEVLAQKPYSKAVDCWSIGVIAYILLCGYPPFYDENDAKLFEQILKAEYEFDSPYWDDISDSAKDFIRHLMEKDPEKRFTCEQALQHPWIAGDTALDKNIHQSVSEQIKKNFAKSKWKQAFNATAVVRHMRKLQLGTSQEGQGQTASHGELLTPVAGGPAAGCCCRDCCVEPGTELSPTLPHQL
Sequence of SAPK2a (p38α) (Q16539 whole entry): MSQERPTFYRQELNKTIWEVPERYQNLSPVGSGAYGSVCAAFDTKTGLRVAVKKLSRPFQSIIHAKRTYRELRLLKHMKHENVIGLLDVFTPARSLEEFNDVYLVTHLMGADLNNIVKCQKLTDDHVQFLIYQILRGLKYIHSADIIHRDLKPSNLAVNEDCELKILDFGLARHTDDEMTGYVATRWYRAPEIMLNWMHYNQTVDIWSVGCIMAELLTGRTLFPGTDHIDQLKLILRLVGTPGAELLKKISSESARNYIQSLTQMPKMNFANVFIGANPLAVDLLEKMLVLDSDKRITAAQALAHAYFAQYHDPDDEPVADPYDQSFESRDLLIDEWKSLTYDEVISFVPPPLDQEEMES
Sequence of MK3 (Q16644 whole entry): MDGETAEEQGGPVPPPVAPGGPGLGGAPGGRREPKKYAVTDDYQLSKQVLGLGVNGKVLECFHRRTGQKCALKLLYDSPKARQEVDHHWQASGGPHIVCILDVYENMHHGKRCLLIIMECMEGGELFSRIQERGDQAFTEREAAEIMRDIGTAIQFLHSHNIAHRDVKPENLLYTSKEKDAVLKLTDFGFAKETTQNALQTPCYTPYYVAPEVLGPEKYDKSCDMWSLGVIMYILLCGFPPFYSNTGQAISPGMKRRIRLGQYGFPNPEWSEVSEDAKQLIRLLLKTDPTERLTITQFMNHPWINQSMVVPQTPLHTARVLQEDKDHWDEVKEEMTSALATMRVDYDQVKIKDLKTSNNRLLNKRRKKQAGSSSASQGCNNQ
T1 sequence (P49137 whole entry): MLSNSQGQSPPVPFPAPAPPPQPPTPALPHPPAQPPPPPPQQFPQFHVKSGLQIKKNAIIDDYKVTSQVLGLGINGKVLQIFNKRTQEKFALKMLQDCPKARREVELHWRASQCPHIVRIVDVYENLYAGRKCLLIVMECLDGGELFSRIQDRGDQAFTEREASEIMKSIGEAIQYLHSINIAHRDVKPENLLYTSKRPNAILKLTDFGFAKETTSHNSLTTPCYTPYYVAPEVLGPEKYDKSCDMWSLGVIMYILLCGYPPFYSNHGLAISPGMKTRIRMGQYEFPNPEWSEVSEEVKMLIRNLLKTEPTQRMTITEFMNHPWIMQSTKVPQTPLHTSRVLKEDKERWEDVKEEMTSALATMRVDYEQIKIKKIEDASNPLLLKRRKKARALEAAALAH
Sequence of ROCK-I (Q13464 whole entry): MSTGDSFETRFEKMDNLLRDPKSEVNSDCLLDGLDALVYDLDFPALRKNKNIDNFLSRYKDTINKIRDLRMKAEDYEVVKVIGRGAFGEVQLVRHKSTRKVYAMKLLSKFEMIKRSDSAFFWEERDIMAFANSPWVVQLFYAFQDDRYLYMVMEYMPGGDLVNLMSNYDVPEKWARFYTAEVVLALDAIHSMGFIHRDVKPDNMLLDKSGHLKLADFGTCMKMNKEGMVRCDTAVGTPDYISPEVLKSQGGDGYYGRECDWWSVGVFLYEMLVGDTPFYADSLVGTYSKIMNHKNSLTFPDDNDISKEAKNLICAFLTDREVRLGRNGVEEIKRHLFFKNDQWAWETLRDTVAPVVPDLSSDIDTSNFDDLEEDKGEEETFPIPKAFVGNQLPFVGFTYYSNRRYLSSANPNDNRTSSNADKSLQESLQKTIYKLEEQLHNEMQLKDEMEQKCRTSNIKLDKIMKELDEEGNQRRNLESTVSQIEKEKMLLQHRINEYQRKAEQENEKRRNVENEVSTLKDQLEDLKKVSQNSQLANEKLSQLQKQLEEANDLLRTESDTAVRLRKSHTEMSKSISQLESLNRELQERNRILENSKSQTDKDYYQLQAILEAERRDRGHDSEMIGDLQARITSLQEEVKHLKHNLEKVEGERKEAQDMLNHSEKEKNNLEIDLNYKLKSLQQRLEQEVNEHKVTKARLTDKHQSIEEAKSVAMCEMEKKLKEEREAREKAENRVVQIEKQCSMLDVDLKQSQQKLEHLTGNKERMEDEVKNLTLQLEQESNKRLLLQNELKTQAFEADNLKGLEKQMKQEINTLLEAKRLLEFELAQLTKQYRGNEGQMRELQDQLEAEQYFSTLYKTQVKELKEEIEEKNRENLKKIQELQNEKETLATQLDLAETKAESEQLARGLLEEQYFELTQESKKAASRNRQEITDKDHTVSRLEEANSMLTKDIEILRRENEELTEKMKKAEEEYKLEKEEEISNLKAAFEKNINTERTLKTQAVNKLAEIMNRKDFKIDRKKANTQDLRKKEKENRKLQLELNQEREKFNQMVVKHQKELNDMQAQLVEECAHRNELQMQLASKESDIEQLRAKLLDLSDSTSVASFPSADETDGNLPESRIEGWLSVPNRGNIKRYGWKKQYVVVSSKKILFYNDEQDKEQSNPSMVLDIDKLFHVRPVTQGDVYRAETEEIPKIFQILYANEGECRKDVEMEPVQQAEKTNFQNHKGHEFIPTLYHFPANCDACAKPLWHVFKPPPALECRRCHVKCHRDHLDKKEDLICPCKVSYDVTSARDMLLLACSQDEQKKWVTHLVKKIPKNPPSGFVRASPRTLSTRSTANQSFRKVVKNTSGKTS
Sequence of MLCK (Q9H1R3 2-596): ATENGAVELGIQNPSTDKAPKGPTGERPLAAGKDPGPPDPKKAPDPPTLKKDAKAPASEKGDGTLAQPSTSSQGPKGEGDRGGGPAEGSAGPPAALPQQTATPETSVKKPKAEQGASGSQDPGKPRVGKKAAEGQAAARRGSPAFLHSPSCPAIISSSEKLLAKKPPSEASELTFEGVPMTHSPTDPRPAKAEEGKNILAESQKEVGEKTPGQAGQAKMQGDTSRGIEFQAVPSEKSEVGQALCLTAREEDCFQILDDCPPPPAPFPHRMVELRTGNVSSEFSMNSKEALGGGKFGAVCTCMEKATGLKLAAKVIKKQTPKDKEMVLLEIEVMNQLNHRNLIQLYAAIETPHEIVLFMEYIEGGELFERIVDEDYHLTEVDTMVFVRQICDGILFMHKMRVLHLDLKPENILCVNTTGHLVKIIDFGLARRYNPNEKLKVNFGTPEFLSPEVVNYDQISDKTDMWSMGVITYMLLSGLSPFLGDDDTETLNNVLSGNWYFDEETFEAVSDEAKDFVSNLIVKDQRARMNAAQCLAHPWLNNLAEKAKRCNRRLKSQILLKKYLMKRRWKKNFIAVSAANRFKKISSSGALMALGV
Sequence of PKCδ (Q05655 whole entry): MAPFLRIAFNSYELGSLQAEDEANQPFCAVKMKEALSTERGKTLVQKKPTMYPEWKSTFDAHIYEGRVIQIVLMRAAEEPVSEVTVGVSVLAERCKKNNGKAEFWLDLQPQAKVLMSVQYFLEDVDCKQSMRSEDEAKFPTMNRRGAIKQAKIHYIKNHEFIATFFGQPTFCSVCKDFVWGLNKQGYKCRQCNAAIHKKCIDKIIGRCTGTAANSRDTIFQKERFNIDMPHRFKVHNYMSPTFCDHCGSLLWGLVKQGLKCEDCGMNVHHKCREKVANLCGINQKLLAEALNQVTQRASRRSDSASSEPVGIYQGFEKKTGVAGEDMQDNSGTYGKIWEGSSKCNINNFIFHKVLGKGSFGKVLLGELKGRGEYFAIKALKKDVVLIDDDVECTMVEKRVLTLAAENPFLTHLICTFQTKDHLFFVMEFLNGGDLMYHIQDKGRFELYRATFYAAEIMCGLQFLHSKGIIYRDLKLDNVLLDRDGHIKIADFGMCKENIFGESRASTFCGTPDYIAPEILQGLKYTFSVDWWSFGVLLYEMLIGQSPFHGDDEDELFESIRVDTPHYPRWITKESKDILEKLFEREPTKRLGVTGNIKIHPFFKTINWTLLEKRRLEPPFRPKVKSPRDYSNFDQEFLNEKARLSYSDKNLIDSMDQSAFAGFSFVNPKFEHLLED

| Molecule | IC50 [1] [nM] | Percentage kinase activity, MK2 ([2]; peptide 100 μM) [%] | Percentage kinase activity, MK3 ([3]; peptide 100 μM) [%] | Percentage kinase activity, CaMKI ([4]; peptide 100 μM) [%] | Percentage kinase activity, MK5 ([5]; peptide 100 μM) [%] | Percentage kinase activity, SAPK2a (p38α) ([6]; peptide 100 μM) [%] | Percentage kinase activity, IRAK4 ([7]; peptide 100 μM) [%] | Percentage kinase activity, MLCK ([8]; peptide 100 μM) [%] | activity at 100 µM [9, 13] [%] | Percentage kinase activity, PKCδ ([10]; peptide 100 μM) [%] | Percentage kinase activity, ROCK-I ([11]; peptide 100 μM) [%] | Percentage kinase activity, MK2 ([2]; peptide 300 μM) [%] | Percentage kinase activity, MK3 ([3]; peptide 300 μM) [%] | Percentage kinase activity, MK5 ([5]; peptide 300 μM) [%] | Percentage kinase activity, PKBβ [9] [%] | other results |
| --- | --- | --- | --- | --- | --- | --- | --- | --- | --- | --- | --- | --- | --- | --- | --- | --- |
| CC(C)C[C@H](NC(=O)[C@H](C)NC(=O)[C@H](CCCCN)NC(=O)[C@H](CCCNC(=N)N)NC(=O)[C@H](Cc1ccc(O)cc1)NC(=O)[C@H](CC(C)C)NC(=O)[C@H](CCCNC(=N)N)NC(=O)[C@H](C)NC(=O)[C@H](C)NC(=O)[C@H](CC(C)C)NC(=O)[C@H](CCCCN)NC(=O)[C@H](C)NC(=O)[C@@H](N)Cc1ccccc1)C(=O)N[C@@H](C)C(=O)N[C@@H](CCCNC(=N)N)C(=O)N[C@@H](CCC(N)=O)C(=O)N[C@@H](CC(C)C)C(=O)NCC(=O)N[C@H](C(=O)N[C@@H](C)C(=O)N[C@@H](C)C(N)=O)C(C)C | 1800 | 5 ± 2 | 10 ± 1 | 0 ± 2 | 131 ± 4 | 30 ± 6 | 13 ± 4 | 1 ± 1 | 16 ± 5 | 40 ± 2 | 25 ± 2 |  |  |  |  |  |
| CC(C)C[C@H](NC(=O)[C@H](C)NC(=O)[C@H](CCCCN)NC(=O)[C@H](CCCNC(=N)N)NC(=O)[C@H](Cc1ccc(O)cc1)NC(=O)[C@H](CC(C)C)NC(=O)[C@H](CCCNC(=N)N)NC(=O)[C@H](C)NC(=O)[C@H](C)NC(=O)[C@H](CC(C)C)NC(=O)[C@H](CCCCN)NC(=O)[C@H](C)NC(=O)[C@H](Cc1ccccc1)NC(=O)[C@H](C)NC(=O)[C@@H](N)CCCCN)C(=O)N[C@@H](C)C(=O)N[C@@H](CCCNC(=N)N)C(=O)N[C@@H](CCC(N)=O)C(=O)N[C@@H](CC(C)C)C(=O)NCC(=O)N[C@H](C(=O)N[C@@H](C)C(=O)N[C@@H](C)C(N)=O)C(C)C | 4400 | 8 ± 1 | 17 ± 1 | 0 ± 2 | 148 ± 4 | 59 ± 8 | 16 ± 2 | 2 ± 0 | 28 ± 4 | 24 ± 3 | 29 ± 0 |  |  |  |  |  |
| CC[C@H](C)[C@H](NC(=O)[C@H](CCCNC(=N)N)NC(=O)[C@H](CCCNC(=N)N)NC(=O)[C@H](CC(C)C)NC(=O)[C@H](Cc1c[nH]c2ccccc12)NC(=O)[C@H](C)NC(=O)[C@H](CCCCN)NC(=O)[C@@H](NC(=O)[C@H](CCCNC(=N)N)NC(=O)[C@H](CCCNC(=N)N)NC(=O)[C@H](CC(C)C)NC(=O)[C@@H](N)Cc1c[nH]c2ccccc12)[C@@H](C)CC)C(=O)N[C@@H](CCCCN)C(=O)N[C@@H](C)C(=O)N[C@@H](CC(C)C)C(=O)N[C@@H](CC(N)=O)C(=O)N[C@@H](CCCNC(=N)N)C(=O)N[C@@H](CCC(N)=O)C(=O)N[C@@H](CC(C)C)C(=O)NCC(=O)N[C@H](C(=O)N[C@@H](C)C(=O)N[C@@H](C)C(N)=O)C(C)C | 740 |  |  |  |  |  |  |  |  |  |  |  |  |  |  | Percentage kinase activity, MK2 ([2]; peptide 30 μM): 2 ± 1%; Percentage kinase activity, MK3 ([3]; peptide 30 μM): 16 ± 2%; Percentage kinase activity, CaMKI ([4]; peptide 30 μM): 9 ± 1%; Percentage kinase activity, MK5 ([5]; peptide 30 μM): 67 ± 9%; Percentage kinase activity, SAPK2a (p38α) ([6]; peptide 30 μM): 61 ± 7%; Percentage kinase activity, IRAK4 ([7]; peptide 30 μM): 12 ± 1%; Percentage kinase activity, MLCK ([8]; peptide 30 μM): 4 ± 1%; activity at 30 µM [9, 13]: 18 ± 2%; Percentage kinase activity, PKCδ ([10]; peptide 30 μM): 11 ± 0%; Percentage kinase activity, ROCK-I ([11]; peptide 30 μM): 0 ± 1% |
| YARAAARQARAKALARQLGVAA |  |  |  |  |  |  |  |  |  |  |  | 0 ± 0 | 5 ± 1 | 86 ± 2 | 17 ± 2 | Percentage kinase activity, MLCK ([8]; peptide 300 μM): 9 ± 0% |
| YARAAARQARAKALNRQLGVAA |  |  |  |  |  |  |  |  |  |  |  | 10 ± 3 | 19 ± 3 | 81 ± 3 | 96 ± 1 | Percentage kinase activity, CaMKI ([4]; peptide 300 μM): 8 ± 1%; Percentage kinase activity, SAPK2a (p38α) ([6]; peptide 300 μM): 100 ± 6%; Percentage kinase activity, IRAK4 ([7]; peptide 300 μM): 68 ± 3%; Percentage kinase activity, PKCδ ([10]; peptide 300 μM): 105 ± 2%; Percentage kinase activity, ROCK-I ([11]; peptide 300 μM): 95 ± 7% |
| YGRKKRRQRRR |  |  |  |  |  |  |  |  |  |  |  |  |  |  |  | inhibition of MK2 activity ([12]; peptide 25 μM): 47.7%; inhibition of MK2 activity ([12]; peptide 100 μM): 61.2% |
